Source: US9604968B2, “Pure crystalline Form II of L-malic acid salt of sunitinib and processes for its preparation” (RANBAXY LABORATORIES LIMITED, priority 2013, dated 2017)

What was measured:
[1] = cited from earlier work
[2] = Storage stability: chromatographic purity (HPLC) of crystalline Form II on storage; assay type: physicochemical; settings: for Chromatographic Purity (1M storage at 25° C. ± 2° C./60% ± 5% RH) / Chromatographic Purity after 1M storage (at 25° C.±2° C./60%±5% RH) / Chromatographic Purity (1M storage at 40° C. ± 2° C./75% ± 5% RH) / Chromatographic Purity after 1M storage (at 40° C.±2° C./75%±5% RH): 1 month storage; for Chromatographic Purity (Initial): before storage
From the text: In an embodiment of the first aspect, the pure crystalline Form II of the L-malic acid salt of sunitinib has a purity of not less than 97.0% as measured by a chromatographic technique such as High-Performance Liquid Chromatography (HPLC).
Table 1 below compares the chromatographic purity of crystalline Form II of an L-malic acid salt of sunitinib prepared without using an anti-oxidant (as per Example 8), and pure crystalline Form II of an L-malic acid salt of sunitinib prepared using an anti-oxidant (as per Examples 1, 2, and 4), on storage at 25° C.±2° C. and 40° C.±2° C. at a relative humidity of 60%±5% and 75%±5%, respectively, for 1 month and above.

Compound | form conversion and moisture absorption on storage ([1]; disclosed in WO 2011/061613) | hygroscopicity ([1]; disclosed in WO 2009/104021) | Chromatographic Purity (1M storage at 25° C. ± 2° C./60% ± 5% RH) ([2]; 25° C.±2° C., 60%±5% RH) | Chromatographic Purity after 1M storage (at 25° C.±2° C./60%±5% RH) ([2]; 25° C.±2° C., 60%±5% RH) | Chromatographic Purity (1M storage at 40° C. ± 2° C./75% ± 5% RH) ([2]; 40° C.±2° C., 75%±5% RH) | Chromatographic Purity after 1M storage (at 40° C.±2° C./75%±5% RH) ([2]; 40° C.±2° C., 75%±5% RH) | Chromatographic Purity (Initial) [2] | Chromatographic Purity (Initial) ([2]; example text) | Chromatographic Purity (1M storage at 25° C. ± 2° C./60% ± 5% RH) ([2]; 25° C. ± 2° C., 60% ± 5% RH, listed as Example 8) | Chromatographic Purity (1M storage at 40° C. ± 2° C./75% ± 5% RH) ([2]; 40° C. ± 2° C., 75% ± 5% RH, listed as Example 8) | Chromatographic Purity (Initial) ([2]; listed as Example 8)
CCN(CC)CCNC(=O)c1c(C)[nH]c(/C=C2\C(=O)Nc3ccc(F)cc32)c1C.O=C(O)C[C@H](O)C(=O)O [stable crystalline Form II] | does not convert to any other form or absorb moisture on storage |  |  |  |  |  |  |  |  |  | 
CCN(CC)CCNC(=O)c1c(C)[nH]c(/C=C2\C(=O)Nc3ccc(F)cc32)c1C.O=C(O)C[C@H](O)C(=O)O [Form II of sunitinib L-malate] |  | hygroscopic |  |  |  |  |  |  |  |  | 
CCN(CC)CCNC(=O)c1c(C)[nH]c(/C=C2\C(=O)Nc3ccc(F)cc32)c1C.O=C(O)C[C@H](O)C(=O)O [Example 2, butanedioic acid, hydroxy-, (2S)-, compound with N-[2-(diethylamino)ethyl]-5-[(Z)-(5-fluoro-1,2-dihydro-2-oxo-3H-indol-3-ylidine)methyl]-2,4-dimethyl-1H-pyrrole-3-carboxamide (1:1)] |  |  | 98.7% w/w | 98.7% | 97.3% w/w | 97.3% | 99.7% w/w | 99.70% |  |  | 
CCN(CC)CCNC(=O)c1c(C)[nH]c(/C=C2\C(=O)Nc3ccc(F)cc32)c1C.O=C(O)C[C@H](O)C(=O)O [Example 1, butanedioic acid, hydroxy-, (2S)-, compound with N-[2-(diethylamino)ethyl]-5-[(Z)-(5-fluoro-1,2-dihydro-2-oxo-3H-indol-3-ylidine)methyl]-2,4-dimethyl-1H-pyrrole-3-carboxamide (1:1)] |  |  | 98.4% w/w | 98.4% | 97.0% w/w | 97.0% | 99.1% w/w | 99.10% |  |  | 
CCN(CC)CCNC(=O)c1c(C)[nH]c(/C=C2\C(=O)Nc3ccc(F)cc32)c1C.O=C(O)C[C@H](O)C(=O)O [Example 7, butanedioic acid, hydroxy-, (2S)-, compound with N-[2-(diethylamino)ethyl]-5-[(Z)-(5-fluoro-1,2-dihydro-2-oxo-3H-indol-3-ylidine)methyl]-2,4-dimethyl-1H-pyrrole-3-carboxamide (1:1)] |  |  |  | 87.4% |  | 87.8% |  | 99.50% | 87.4% w/w | 87.8% w/w | 99.5% w/w
CCN(CC)CCNC(=O)c1c(C)[nH]c(/C=C2\C(=O)Nc3ccc(F)cc32)c1C.O=C(O)C[C@H](O)C(=O)O [Example 4, butanedioic acid, hydroxy-, (2S)-, compound with N-[2-(diethylamino)ethyl]-5-[(Z)-(5-fluoro-1,2-dihydro-2-oxo-3H-indol-3-ylidine)methyl]-2,4-dimethyl-1H-pyrrole-3-carboxamide (1:1)] |  |  | 99.7% w/w | 99.70% | 99.3% w/w | 99.3% | 99.7% w/w | 99.70% |  |  | 
